Results as given in PubChem BioAssay AID248 (DTP/NCI, 2004).
Several values for one entry are separate records, joined by “and”; a condition that tells them apart may be missing. Equal values may be shown once. Toxic doses and inconclusive results are not listed. Rule as the data show it: active = T/C of 150% or more; inactive = T/C below 125%.

System: L1210 leukemia ip in BDF1 mice, survival T/C
Test: NCI In Vivo Anticancer Drug Screen. Data for tumor model L1210 Leukemia (intraperitoneal) in B6D2F1 (BDF1) mice
Settings: endpoint: mean survival time, higher = longer survival
Method in brief: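 Survival endpoint. Drug-treated group vs vehicle group, expressed as T divided by C. Tumor passaged by transplantation.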

[1] = dose: 100.0 mg/kg/injection, schedule: Q01DX009 (ip), vehicle: Klucel (hydroxypropylcellulose) (HPC)
[2] = dose: 100.0 mg/kg/injection, schedule: Q04DX003 (ip), vehicle: Klucel (hydroxypropylcellulose) (HPC)
[3] = dose: 200.0 mg/kg/injection, schedule: Q04DX003 (ip), vehicle: Klucel (hydroxypropylcellulose) (HPC)
[4] = dose: 400.0 mg/kg/injection, schedule: Q04DX003 (ip), vehicle: Klucel (hydroxypropylcellulose) (HPC)
[5] = dose: 100.0 mg/kg/injection, schedule: Q01DX001 (ip), vehicle: saline
[6] = dose: 200.0 mg/kg/injection, schedule: Q01DX001 (ip), vehicle: saline
[7] = dose: 400.0 mg/kg/injection, schedule: Q01DX001 (ip), vehicle: saline
[8] = dose: 200.0 mg/kg/injection, schedule: Q01DX009 (ip), vehicle: Klucel (hydroxypropylcellulose) (HPC)
[9] = dose: 400.0 mg/kg/injection, schedule: Q01DX009 (ip), vehicle: Klucel (hydroxypropylcellulose) (HPC)
[10] = dose: 100.0 mg/kg/injection, schedule: Q04DX003 (ip), vehicle: saline with Tween-80
[11] = dose: 50.0 mg/kg/injection, schedule: Q01DX001 (ip), vehicle: saline

Measured: T/C

CCN(CC)CCNc1ccc(CO)c(Cl)c1
inactive: dose: 31.25 mg/kg/injection, schedule: Q01DX009 (ip), vehicle: Klucel (hydroxypropylcellulose) (HPC) 92 % of control | dose: 62.5 mg/kg/injection, schedule: Q01DX009 (ip), vehicle: Klucel (hydroxypropylcellulose) (HPC) 89 % of control | dose: 125.0 mg/kg/injection, schedule: Q01DX009 (ip), vehicle: Klucel (hydroxypropylcellulose) (HPC) 106 % of control

Cn1c(=O)c2ccccc2c2cc(Cl)ccc21
inactive: [1] 94 % of control | [2] 96 % of control | [3] 96 % of control | [4] 93 % of control

CCN(CC)CCOc1ccccc1-c1nc2ccccc2s1
inactive: dose: 25.0 mg/kg/injection, schedule: Q01DX009 (ip), vehicle: Klucel (hydroxypropylcellulose) (HPC) 104 % of control | dose: 50.0 mg/kg/injection, schedule: Q01DX009 (ip), vehicle: Klucel (hydroxypropylcellulose) (HPC) 98 % of control | [1] 96 % of control and 108 % of control

COc1nc(Br)ccc1/C=N\NC(N)=S
inactive: dose: 10.0 mg/kg/injection, schedule: Q04DX003 (ip), vehicle: Klucel (hydroxypropylcellulose) (HPC) 101 % of control | dose: 20.0 mg/kg/injection, schedule: Q04DX003 (ip), vehicle: Klucel (hydroxypropylcellulose) (HPC) 95 % of control | [4] 98 % of control

NC(CCCC(N)C(=O)CCl)C(=O)O (configuration not stated)
inactive: dose: 25.0 mg/kg/injection, schedule: Q04DX002 (ip), vehicle: saline 114 % of control | dose: 50.0 mg/kg/injection, schedule: Q04DX002 (ip), vehicle: saline 104 % of control | dose: 100.0 mg/kg/injection, schedule: Q04DX002 (ip), vehicle: saline 107 % of control

O=Cc1cc(=O)[nH]c(NC(=O)C(Cl)Cl)n1
inactive: [5] 101 % of control | [6] 104 % of control | [7] 89 % of control

CCOC(=O)c1ccc(NC(=S)N2CCOCC2)cc1
inactive: [1] 93 % of control | [8] 101 % of control | [9] 93 % of control

CCCCCCCCC1OCC(C)O1 (configuration not stated)
inactive: dose: 24.0 mg/kg/injection, schedule: Q01DX Z (ip), vehicle: methylcellulose (MC) 94 % of control and 92 % of control | dose: 37.0 mg/kg/injection, schedule: Q01DX Z (ip), vehicle: methylcellulose (MC) 96 % of control and 107 % of control | dose: 55.0 mg/kg/injection, schedule: Q01DX Z (ip), vehicle: methylcellulose (MC) 86 % of control | dose: 82.5 mg/kg/injection, schedule: Q01DX Z (ip), vehicle: methylcellulose (MC) 97 % of control and 92 % of control | dose: 124.0 mg/kg/injection, schedule: Q01DX Z (ip), vehicle: methylcellulose (MC) 94 % of control

N/N=C\C(=N/N)C(O)C(O)C(O)CO (configuration not stated)
inactive: dose: 25.0 mg/kg/injection, schedule: Q01DX001 (ip), vehicle: saline with Tween-80 93 % of control | dose: 50.0 mg/kg/injection, schedule: Q01DX001 (ip), vehicle: saline with Tween-80 90 % of control | dose: 100.0 mg/kg/injection, schedule: Q01DX001 (ip), vehicle: saline with Tween-80 87 % of control

FC(F)(F)c1ccc2c(c1)N(CCCN(CCCl)CCCl)c1ccccc1S2
inactive: dose: 3.12 mg/kg/injection, schedule: Q01DX001 (ip), vehicle: saline with Tween-80 102 % of control | dose: 3.12 mg/kg/injection, schedule: Q01DX009 (ip), vehicle: saline with Tween-80 102 % of control | dose: 6.25 mg/kg/injection, schedule: Q01DX001 (ip), vehicle: saline with Tween-80 102 % of control | dose: 6.25 mg/kg/injection, schedule: Q01DX009 (ip), vehicle: saline with Tween-80 98 % of control | dose: 12.5 mg/kg/injection, schedule: Q01DX001 (ip), vehicle: saline with Tween-80 100 % of control | dose: 12.5 mg/kg/injection, schedule: Q01DX009 (ip), vehicle: saline with Tween-80 100 % of control | dose: 12.5 mg/kg/injection, schedule: Q04DX003 (ip), vehicle: saline with Tween-80 102 % of control | dose: 25.0 mg/kg/injection, schedule: Q04DX003 (ip), vehicle: saline with Tween-80 113 % of control | dose: 50.0 mg/kg/injection, schedule: Q04DX003 (ip), vehicle: saline with Tween-80 98 % of control | [10] 113 % of control

CCC1CN2N=Cc3ccccc3C2=N1 (configuration not stated)
inactive: dose: 10.0 mg/kg/injection, schedule: Q01DX001 (ip), vehicle: saline 105 % of control | dose: 20.0 mg/kg/injection, schedule: Q01DX001 (ip), vehicle: saline 103 % of control

O=C(O)C1OC1(c1cccc(Cl)c1)c1ccccc1Cl (configuration not stated)
inactive: dose: 100.0 mg/kg/injection, schedule: Q01DX001 (ip), vehicle: olive oil, sesame oil, peanut oil 101 % of control | dose: 200.0 mg/kg/injection, schedule: Q01DX001 (ip), vehicle: olive oil, sesame oil, peanut oil 106 % of control

CCOC(=O)Cn1c2ccccc2c2cc3c(C)nccc3c(C)c21
inactive: dose: 4.69 mg/kg/injection, schedule: Q01DX009 (ip), vehicle: saline with Tween-80 93 % of control | dose: 9.37 mg/kg/injection, schedule: Q01DX009 (ip), vehicle: saline with Tween-80 96 % of control | dose: 9.37 mg/kg/injection, schedule: Q04DX003 (ip), vehicle: saline with Tween-80 96 % of control | dose: 18.75 mg/kg/injection, schedule: Q01DX009 (ip), vehicle: saline with Tween-80 95 % of control | dose: 18.75 mg/kg/injection, schedule: Q04DX003 (ip), vehicle: saline with Tween-80 105 % of control | dose: 37.5 mg/kg/injection, schedule: Q01DX009 (ip), vehicle: saline with Tween-80 95 % of control | dose: 37.5 mg/kg/injection, schedule: Q04DX003 (ip), vehicle: saline with Tween-80 96 % of control | dose: 75.0 mg/kg/injection, schedule: Q01DX009 (ip), vehicle: saline with Tween-80 103 % of control | dose: 75.0 mg/kg/injection, schedule: Q04DX003 (ip), vehicle: saline with Tween-80 105 % of control | dose: 150.0 mg/kg/injection, schedule: Q01DX009 (ip), vehicle: saline with Tween-80 97 % of control | dose: 150.0 mg/kg/injection, schedule: Q04DX003 (ip), vehicle: saline with Tween-80 113 % of control

CC(=O)OC1=C2C(C)(CCC(OC(C)=O)C2(C)C)C2=C(C1=O)C1(C)CCC(C(C)CCCC(C)C)C1(C)CC2=O (configuration not stated)
inactive: [10] 87 % of control | dose: 200.0 mg/kg/injection, schedule: Q04DX003 (ip), vehicle: saline with Tween-80 87 % of control

COC(=O)C1=C(\O)CCCC/C=C\1C(=O)OC
inactive: dose: 100.0 mg/kg/injection, schedule: Q04DX002 (ip), vehicle: Klucel (hydroxypropylcellulose) (HPC) 87 % of control | dose: 200.0 mg/kg/injection, schedule: Q04DX002 (ip), vehicle: Klucel (hydroxypropylcellulose) (HPC) 97 % of control | dose: 400.0 mg/kg/injection, schedule: Q04DX002 (ip), vehicle: Klucel (hydroxypropylcellulose) (HPC) 107 % of control

CN(CCO)C(c1ccccc1)c1ccccc1
inactive: [5] 100 % of control | [6] 94 % of control | [7] 103 % of control

O=C(ON=C1C=CC(=NOC(=O)c2ccccc2)C=C1)c1ccccc1
inactive: [5] 97 % of control | [6] 102 % of control | [7] 91 % of control

O=C(O)/C=C\C(=O)Nc1ccccc1Cl
inactive: [1] 102 % of control | [8] 100 % of control | [9] 97 % of control

S=C(Nc1cccc2ccccc12)N1CCOCC1
inactive: [1] 94 % of control | [8] 120 % of control | [9] 96 % of control

O=C1C=C(Nc2ccc(S(=O)(=O)N(CCCl)CCCl)cc2)c2ccccc2C1=O
inactive: [1] 97 % of control | [8] 100 % of control | [9] 102 % of control

CC(=O)ON1C(=O)c2ccccc2C1=O
inactive: [11] 102 % of control | [5] 100 % of control | [6] 102 % of control

c1ccc(C(NC(c2ccccc2)c2ccccc2)c2ccccc2)cc1
inactive: [11] 91 % of control | [5] 97 % of control | [6] 93 % of control | [7] 97 % of control

O=C(NCCCl)Nc1ccc2c(c1)Cc1ccccc1-2
inactive: [2] 108 % of control | [3] 93 % of control | [4] 101 % of control

CC(=O)n1cc(C=C2C(=O)CC(C)(C)CC2=O)c2ccccc21
inactive: dose: 37.5 mg/kg/injection, schedule: Q01DX009 (ip), vehicle: Klucel (hydroxypropylcellulose) (HPC) 89 % of control | dose: 75.0 mg/kg/injection, schedule: Q01DX009 (ip), vehicle: Klucel (hydroxypropylcellulose) (HPC) 95 % of control | dose: 150.0 mg/kg/injection, schedule: Q01DX009 (ip), vehicle: Klucel (hydroxypropylcellulose) (HPC) 98 % of control

CCC[As](=O)(O)CC
inactive: dose: 100.0 mg/kg/injection, schedule: Q01DX009 (ip), vehicle: saline 103 % of control | dose: 200.0 mg/kg/injection, schedule: Q01DX009 (ip), vehicle: saline 105 % of control

CC(=O)OC(C)CC[P+](c1ccccc1)(c1ccccc1)c1ccccc1 (configuration not stated)
inactive: dose: 75.0 mg/kg/injection, schedule: Q01DX001 (ip), vehicle: other 104 % of control | dose: 150.0 mg/kg/injection, schedule: Q01DX001 (ip), vehicle: other 106 % of control
